Results from the NIST ThermoML archive (doi:10.1021/je060138i).
± gives the expanded uncertainty stated by the source.

Columns and labels:
[1] = for mass density: 293.15 K, 101.33 kPa, Liquid
[2] = refractive index (Na D-line) (dimensionless); details: 293.15 K; 101.33 kPa; Liquid; Standard Abbe refractometry

mass density [1] | refractive index [2] | Normal melting temperature ([1]; Crystal, visual observation) | Compound
899 ± 1 kg/m3 | 1.3719 ± 0.0007 | – | CCOC(C)=O [ethyl acetate]
783 ± 1 kg/m3 | 1.343 ± 0.0007 | – | CC#N [acetonitrile]
1050 ± 1 kg/m3 | 1.3718 ± 0.0008 | – | CC(=O)O [acetic acid]
– | – | 310.50 ± 4.4 °C | O=P1(O)OCC2(CO1)COP(=O)(O)OC2 (stereo unspecified)
1321 ± 1 kg/m3 | 1.4237 ± 0.0007 | – | ClCCl [dichloromethane]

Compound | mass density [1] | refractive index [2] | Normal melting temperature ([1]; Crystal, visual observation)
CC(C)=O [acetone] | 790 ± 1 kg/m3 | 1.359 ± 0.0007 | –
